Test results published in ChEMBL document CHEMBL1143875, “Synthesis and structure-activity relationships of thiadiazole-derivatives as potent and orally active peroxisome proliferator-activated receptors alpha/delta dual agonists” (Bioorg Med Chem, 2008).
Activity calls are given as the source filed them. The rule behind the calls is not given here.

Key:
[1] = Cmax in ob/ob C57BL/6J-leptin deficient obese mouse at 1 mg/kg administered as multiple dose after 11 days; assay type: ADME, organism-based; design: dose 1 mg/kg; details: in vivo
Canis familiaris [2] = test: Increase in aspartate aminotransferase level in Beagle dog serum at 10 mg/kg, po/day after 7 days; assay type: functional, Canis lupus familiaris
[3] = Induction of Pa9 gene expression in human skeletal muscle cells at 1 nM by RT-PCR; assay type: functional
[4] = Cmax in Sprague-Dawley rat at 0.3 mg/kg administered as multiple dose after 8 days; assay type: ADME, organism-based; design: dose 0.3 mg/kg; details: in vivo
[5] = AUC in Beagle dog at 0.3 mg/kg administered as multiple dose after 7 days; assay type: ADME, organism-based, Canis lupus familiaris; design: dose 0.3 mg/kg; details: plasma
Rattus norvegicus [6] = test: Increase in HDL cholesterol level in po dosed hypercholesterolemic Sprague-Dawley rat serum after 8 days; assay type: functional
[7] = AUC in Beagle dog at 10 mg/kg administered as multiple dose after 7 days; assay type: ADME, organism-based, Canis lupus familiaris; design: dose 10 mg/kg; details: plasma
[8] = molecular target: T1, Peroxisome proliferator-activated receptor alpha (Homo sapiens) (UniProt Q07869); test: Agonist activity at human PPARalpha-Gal4 in HEK293 cells by luciferase reporter assay relative to (S)-2-{2-[1-ethyl-3-(4-trifluoro-methoxyphenyl)ureido]indan-5-ylsulfanyl}-2-methylpropionic acid; assay type: functional, cell-based
T1 sequence (whole entry): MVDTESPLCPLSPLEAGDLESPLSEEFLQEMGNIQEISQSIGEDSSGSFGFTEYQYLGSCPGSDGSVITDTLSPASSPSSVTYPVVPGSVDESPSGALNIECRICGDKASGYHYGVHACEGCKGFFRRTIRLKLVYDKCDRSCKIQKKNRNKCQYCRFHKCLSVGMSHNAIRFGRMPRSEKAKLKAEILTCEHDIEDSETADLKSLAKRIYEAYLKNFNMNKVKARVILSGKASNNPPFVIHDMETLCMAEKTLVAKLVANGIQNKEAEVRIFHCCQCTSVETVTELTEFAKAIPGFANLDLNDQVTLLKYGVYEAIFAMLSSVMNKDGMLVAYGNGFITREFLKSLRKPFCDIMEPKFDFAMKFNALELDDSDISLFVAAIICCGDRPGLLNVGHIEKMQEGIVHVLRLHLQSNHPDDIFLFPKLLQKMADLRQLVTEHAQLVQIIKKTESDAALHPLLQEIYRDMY

[9] = Induction of CPT1 gene expression in human skeletal muscle cells at 1 nM by RT-PCR; assay type: functional
Mus musculus [10] = test: […] effect of ob/ob C57BL/6J-leptin deficient obese mouse assessed as reduction in serum insulin level at 0.1 to 3 mg/kg, po after 11 days; assay type: functional; design: scale not given: the % may be the effect or the level left; details: dose mg/kg 0.1-3
[11] = Cmax in Beagle dog at 3 mg/kg administered as multiple dose after 7 days; assay type: ADME, organism-based, Canis lupus familiaris; design: dose 3 mg/kg; details: in vivo
[12] = Half life in ob/ob C57BL/6J-leptin deficient obese mouse at 1 mg/kg administered as multiple dose after 11 days; assay type: ADME, organism-based; design: dose 1 mg/kg; details: in vivo
[13] = Activity at retinoic acid receptor
Canis familiaris [14] = test: Antihyperlipidemic activity in Beagle dog serum assessed as reduction in triglyceride level at 0.3 to 10 mg/kg, po/day after 7 days; assay type: functional, organism-based; details: Canis lupus familiaris
[15] = Half life in Sprague-Dawley rat at 0.3 mg/kg administered as multiple dose after 8 days; assay type: ADME, organism-based; design: dose 0.3 mg/kg; details: in vivo
[16] = Cmax in Beagle dog at 0.3 mg/kg administered as multiple dose after 7 days; assay type: ADME, organism-based, Canis lupus familiaris; design: dose 0.3 mg/kg; details: in vivo
Mus musculus [17] = test: Increase in hApoA1 level in po dosed hApoA1 transgenic mouse after 7 days; assay type: functional, organism-based
[18] = Cmax in Sprague-Dawley rat at 1 mg/kg administered as multiple dose after 8 days; assay type: ADME, organism-based; design: dose 1 mg/kg; details: in vivo
[19] = Cmax in Sprague-Dawley rat at 0.1 mg/kg administered as multiple dose after 8 days; assay type: ADME, organism-based; design: dose 0.1 mg/kg; details: in vivo
Mus musculus [20] = test: Decrease in non esterified free fatty acid level i in po dosed hApoA1 transgenic mouse after 7 days; assay type: functional, organism-based
Canis familiaris [21] = test: Antihyperlipidemic activity in Beagle dog serum assessed as reduction in total cholesterol level at 0.3 to 10 mg/kg, po/day after 7 days; assay type: functional, organism-based; details: Canis lupus familiaris
Canis familiaris [22] = test: Antihyperlipidemic activity in Beagle dog serum assessed as reduction in free fatty acids level at 0.3 to 10 mg/kg, po/day after 7 days; assay type: functional, organism-based; details: Canis lupus familiaris
[23] = Cmax in Beagle dog at 1 mg/kg administered as multiple dose after 7 days; assay type: ADME, organism-based, Canis lupus familiaris; design: dose 1 mg/kg; details: in vivo
[24] = AUC in ob/ob C57BL/6J-leptin deficient obese mouse at 3 mg/kg administered as single dose on day 11; assay type: ADME, organism-based; design: dose 3 mg/kg; details: plasma
[25] = molecular target: T2, Peroxisome proliferator-activated receptor delta (Homo sapiens, UniProt Q03181); test: Agonist activity at human PPARdelta-Gal4 in HEK293 cells by luciferase reporter assay; assay type: functional, cell-based
T2 sequence (Q03181 whole entry): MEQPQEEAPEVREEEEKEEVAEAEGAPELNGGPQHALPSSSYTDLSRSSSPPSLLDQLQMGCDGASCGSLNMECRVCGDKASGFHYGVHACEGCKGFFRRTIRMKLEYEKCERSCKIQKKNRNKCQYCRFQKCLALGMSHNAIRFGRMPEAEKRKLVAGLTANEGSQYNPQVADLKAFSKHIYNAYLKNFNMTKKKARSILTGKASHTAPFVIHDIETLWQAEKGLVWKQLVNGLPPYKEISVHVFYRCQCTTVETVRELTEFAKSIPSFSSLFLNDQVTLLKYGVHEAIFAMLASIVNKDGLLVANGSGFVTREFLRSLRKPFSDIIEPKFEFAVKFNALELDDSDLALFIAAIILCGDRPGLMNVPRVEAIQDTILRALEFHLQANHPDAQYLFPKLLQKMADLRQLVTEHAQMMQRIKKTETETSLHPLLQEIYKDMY

[26] = Cmax in Sprague-Dawley rat at 3 mg/kg administered as single dose on day 8; assay type: ADME, organism-based; design: dose 3 mg/kg; details: in vivo
Mus musculus [27] = test: […] effect of ob/ob C57BL/6J-leptin deficient obese mouse assessed as increase in liver weight at 0.1 to 3 mg/kg, po after 11 days; assay type: functional; details: dose mg/kg 0.1-3
[28] = Half life in ob/ob C57BL/6J-leptin deficient obese mouse at 3 mg/kg administered as multiple dose after 11 days; assay type: ADME, organism-based; design: dose 3 mg/kg; details: in vivo
Rattus norvegicus [29] = test: Decrease in total cholesterol level in hypercholesterolemic Sprague-Dawley rat serum at 0.1 to 1 mg/kg, po after 8 days; assay type: functional; details: dose mg/kg 0.1-1
[30] = AUC in Beagle dog at 1 mg/kg administered as multiple dose after 7 days; assay type: ADME, organism-based, Canis lupus familiaris; design: dose 1 mg/kg; details: plasma
[31] = Cmax in Sprague-Dawley rat at 3 mg/kg administered as multiple dose after 8 days; assay type: ADME, organism-based; design: dose 3 mg/kg; details: in vivo
[32] = Half life in Sprague-Dawley rat at 1 mg/kg administered as multiple dose after 8 days; assay type: ADME, organism-based; design: dose 1 mg/kg; details: in vivo
[33] = Half life in Sprague-Dawley rat at 0.1 mg/kg administered as multiple dose after 8 days; assay type: ADME, organism-based; design: dose 0.1 mg/kg; details: in vivo

Question: Which Cmax [1] does the source give for `Cc1cc(SCc2nc(-c3ccc(Cl)c(Cl)c3)ns2)ccc1OC(C)(C)C(=O)O` here?
Answer: 6830 ng/mL

Question: What about the Fold change (Canis familiaris [2]) of the same compound?
Answer: 1.7

Question: What about the Fold change [3] of the same compound?
Answer: 3.8

Question: And the Cmax [4]?
Answer: 231 ng/mL

Question: And the AUC at 168 h [5]?
Answer: 2650 ng·h/mL

Question: And the Activity (Rattus norvegicus [6])?
Answer: 45 mg/dL

Question: And the AUC at 168 h [7]?
Answer: 61600 ng·h/mL

Question: And the Efficacy [8]?
Answer: 56%

Question: And the Fold change [9]?
Answer: 3

Question: What about the Activity (Mus musculus [10]) of the same compound?
Answer: 50%

Question: What about the Cmax [11] of the same compound?
Answer: 6710 ng/mL

Question: And the half-life [12]?
Answer: 5.2 h

Question: What about the Activity [13] of the same compound?
Answer: inactive

Question: What about the Activity (Canis familiaris [14]) of the same compound?
Answer: Dose-dependent effect

Question: What about the half-life [15] of the same compound?
Answer: 5.1 h

Question: And the Cmax [16]?
Answer: 398 ng/mL

Question: What about the Activity (Mus musculus [17]) of the same compound?
Answer: Dose-dependent effect

Question: What about the Cmax [18] of the same compound?
Answer: 1360 ng/mL

Question: What about the Cmax [19] of the same compound?
Answer: 82 ng/mL

Question: And the Activity (Mus musculus [20])?
Answer: Active

Question: And the Activity (Canis familiaris [21])?
Answer: Dose-dependent effect

Question: What about the Activity (Canis familiaris [22]) of the same compound?
Answer: Dose-dependent effect

Question: What about the Cmax [23] of the same compound?
Answer: 1530 ng/mL

Question: And the AUC [24]?
Answer: 115000 ng·h/mL

Question: And the EC50 [25]?
Answer: 8 nM

Question: And the Cmax [26]?
Answer: 2520 ng/mL

Question: And the Activity (Mus musculus [27])?
Answer: 65%

Question: And the half-life [28]?
Answer: 6.7 h

Question: What about the Activity (Rattus norvegicus [29]) of the same compound?
Answer: 263 mg/dL

Question: And the AUC at 168 h [30]?
Answer: 6500 ng·h/mL

Question: And the Cmax [31]?
Answer: 2000 ng/mL

Question: And the half-life [32]?
Answer: 5.7 h

Question: And the half-life [33]?
Answer: 5.5 h
